The subject of series [1] is iron-overloaded Cebus apella primates. As to conditions: cited from earlier work.
In series [2] the test system is non-iron-overloaded, bile duct-cannulated rats. Conditions: historical data, cited from earlier work.
The conditions of series [3]: historical findings from references; cited from earlier work.
The conditions of series [4]: 2:1 complex with Fe(III); cited from earlier work.
For series [5] the following is noted: trial abandoned by Genzyme; cited from earlier work.
Series [6] has as its system non-iron-overloaded, bile duct-cannulated rats. Description: Chelator-induced iron clearance (ICE, biliary ferrokinetics) in non-iron-overloaded, bile duct-cannulated rodents. As to conditions: for time of maximum iron clearance (MIC), biliary ferrokinetics / time until iron excretion is over / returned to baseline, biliary ferrokinetics / ICE (iron-clearing efficiency), rodents: bile duct-cannulated rats; for time of maximum iron clearance (MIC), biliary ferrokinetics / time until iron excretion is over / returned to baseline, biliary ferrokinetics: 300 μmol/kg PO; for ICE relative to parent ligand 2 (times) / ICE relative to trioxa polyether 4 (times): rodents, po 300 μmol/kg. The series is classed as in vivo, rat (male Sprague-Dawley).

The test system of series [7] is iron-overloaded Cebus apella primates. Description: Chelator-induced iron clearance (ICE) in iron-overloaded Cebus apella primates. The series is classed as in vivo. Conditions: for performance ratio (PR), mean ICEprimates/ICErodents: current study; for ICE (iron-clearing efficiency), primates: iron-overloaded C. apella.
Protocol: The drugs were administered in capsules (6, 7), solubilized in either 40% Cremophor RH-40/water (1), distilled water (4), or were given as their monosodium salts, prepared by the addition of 1 equiv of NaOH to a suspension of the free acid in distilled water (2, 3, 5). The efficiency of each compound was calculated by subtracting the 24-h iron excretion of control animals from the iron excretion of the treated animals. The number was then divided by the theoretical output; the result is expressed as a percent. […] The relative percentages of the iron excreted in the bile and urine are in brackets. ^cIn the primates [n=4 (1, 3, 4, 5, 6 in capsules, 7) or 7 (2, 6 as the monosodium salt)], the chelators were given po at a dose of 75 μmol/kg (5-7) or 150 μmol/kg (1-4). The drugs were administered in capsules (6^d, 7), solubilized in either 40% Cremophor RH-40/water (1, 3), distilled water (4), or were given as their monosodium salts, prepared by the addition of 1 equiv of NaOH to a suspension of the free acid in distilled water (2, 5, 6^e).
Iron chelators in a Cebus apella monkey model. […] Briefly, the monkeys are iron overloaded with iron dextran administered intravenously to result in an iron loading of about 500 mg per kg of body weight. At least 20 half-lives, 60 days, elapse before the animals are used in experiments evaluating iron chelators. The iron chelators are suspended in vehicle and administered either p.o. or s.c. Fecal and urine samples are collected at 24 hour intervals beginning 4 days prior to the administration of an iron chelator and continued for 5 days after the chelator is administered. Iron concentrations in stool and urine are determined by flame atomic absorption spectroscometry. Iron chelator efficiency is calculated by dividing the net iron clearance [total iron excretion (stool plus urine) minus background] by the theoretical iron clearance and multiplying by 100. The theoretical clearance of the iron chelator is generated on the basis of a 2:1 ligand/iron complex.
Drug preparation and administration. In the iron clearing experiments, the rats were given 5-7 orally at a dose of 300 μmol/kg. Ligand 5 was given by gavage as its monosodium salt (prepared by the addition of 1 equiv of NaOH to a suspension of the free acid in distilled water), while 6 and 7 were given in capsules. The primates were given 5-7 orally at a dose of Ligand 5 was given to the primates by gavage as its monosodium salt. Analogue 6 was given to the monkeys by gavage as its monosodium salt, as well as in capsules. Ligand 7 was given to the monkeys in capsules.
The subject of another series is rats. The experiment in a line: Tissue iron decorporation in rats after 10 days of oral dosing. Format: in vivo, rat (male Sprague-Dawley).
Series [8] is described as follows: Octanol/water partition (log Papp), shake flask direct method, Tris buffer pH 7.4. Conditions: from log Papp values.
Protocol: The efficiency of each compound was calculated by subtracting the 24-h iron excretion of control animals from the iron excretion of the treated animals. The number was then divided by the theoretical output; the result is expressed as a percent. […] The relative percentages of the iron excreted in the bile and urine are in brackets. ^cIn the primates [n=4 (1, 3, 4, 5, 6 in capsules, 7) or 7 (2, 6 as the monosodium salt)], the chelators were given po at a dose of 75 μmol/kg (5-7) or 150 μmol/kg (1-4).
The partition values between octanol and water (at pH 7.4, Tris buffer) were determined using a “shake flask” direct method of measuring log Papp values.^52 The fraction of drug in the octanol is then expressed as log Papp.
Series [9] is described as follows: Hydrolysis of ester 7 to acid 6 in rat plasma. Format: in vitro ADME. Conditions: 37° C., solubilized in DMSO. Here is the method:
(§1) The profound difference between the ICE of the parent acid chelator 6 versus that of the ester 7 in rodents and primates is consistent with two possible explanations: 1) The ester is poorly absorbed from the gastrointestinal (GI) tract in the primates, or 2) The primate non-specific serum esterases simply may not cleave ester 7 to the active chelator acid 6. An experiment was performed using rat and monkey plasma in an attempt to determine if the relatively poor ICE of 7 in the primates was due to interspecies differences in hydrolysis. When 7 was solubilized in DMSO and incubated at 37° C. with rat plasma, all of the ester had been converted to the active acid 6 within 1-2 h. This was also the case when the experiment was carried out with plasma from Cebus apella monkeys. Thus, there is no difference in the hydrolysis of 7 between the rats and the primates. Therefore, the poor ICE of 7 in the monkeys is consistent with the idea that the ester is absorbed much more effectively from the GI tract of the rodents than from the GI tract of the primates. Control experiments were also performed in which saline was used in place of the rat or monkey plasma.
(§2) Plasma analytical methods. […] The chelator concentrations were calculated from the peak area fitted to calibration curves by non-weighted least-squares linear regression with Shimadzu CLASS-NP 7.4 Chromatography Software. […]

Series [10] in a line: Control incubation of ester 7 in saline in place of plasma. Format: physicochemical. As to conditions: solubilized in DMSO. Here is the method:
as §1
The ethyl ester (7) was solubilized in DMSO and further diluted with distilled water to provide a 100 μM solution. A 25 μL aliquot of the drug solution was added to centrifuge tubes containing 100 μL of rat or primate plasma. […]

The nature of series [11]: Hydrolysis of ester 7 to acid 6 in Cebus apella monkey plasma. The series is classed as in vitro ADME. As to conditions: 37° C., solubilized in DMSO. The protocol: as §1, §2
Where [12] appears, read: bile duct-cannulated rats, po 300 μmol/kg.
The mark [13] stands for this setting: po 75 μmol/kg by gavage as monosodium salt.
Setting [14] is: 384 μmol/kg/day × 10 days po as sodium salt.
Where [15] appears, read: 384 μmol/kg/day × 10 days po in capsules.
Setting [16] is: 192 μmol/kg/d × 10 days po in capsules.

Here are results for 8 compounds from patent US20120184586A1, “DESFERRITHIOCIN POLYETHER ANALOGUES AND USES THEREOF” (University of Florida Research Foundation, Inc., priority 2009, published 2012).

“And” between values parts separate entries of the source, which are not always exact repeats. Identical values can stand only once. “Also recorded” adds a separate entry of the source. Like-named read-outs stand apart in the source and are kept apart here.

As for `COCCOCCOCCOc1ccc(O)c(C2=NC(C)(C(=O)O)CS2)c1` (single isomer, unassigned) [5′-isomer of 4], the “performance ratio (PR), mean ICEprimates/ICErodents” value in series [1] (previously reported (ref 46)) is 1. Besides, the “ICE (iron-clearing efficiency), primates” value in series [1] (previously reported, dose not stated) was 8.1±2.8%.
Consider `C[C@]1(C(=O)O)CSC(c2ncccc2O)=N1` [ligand 1, (S)-4,5-dihydro-2-(3-hydroxy-2-pyridinyl)-4-methyl-4-thiazolecarboxylic acid], for which, in series [2] (bile duct-cannulated rodent model, po 150 μmol/kg), the “ICE (iron-clearing efficiency), rodents” value is listed as 5.5%. Further, the “ICE (iron-clearing efficiency), primates” value in series [1] (iron-overloaded C. apella, po 150 μmol/kg, historical data) is 16%. Also, in series [3], the nephrotoxicity entry was “severely nephrotoxic”. Moreover, in series [4], the “log β2” value was 29.6.
As for `C[C@]1(C(=O)O)CSC(c2ccc(O)cc2O)=N1` [ligand 2, (S)-2-(2,4-dihydroxyphenyl)-4,5-dihydro-4-methyl-4-thiazolecarboxylic acid], in series [2] (setting [12]), the “ICE (iron-clearing efficiency), rodents” value was 1.1±0.8%. For the same compound, the clinical trial outcome in series [5] is reported as “abandoned by Genzyme because of renal toxicity”. Besides, in series [6], the “time of maximum iron clearance (MIC), biliary ferrokinetics” value (shortened to “time of maximum iron clearance (MIC)”) is recorded as 3 h and the “time until iron excretion is over / returned to baseline, biliary ferrokinetics” value came out at 9 h.
With `COc1ccc(C2=N[C@@](C)(C(=O)O)CS2)c(O)c1` [ligand 3, (S)-4,5-dihydro-2-(2-hydroxy-4-methoxyphenyl)-4-methyl-4-thiazolecarboxylic acid], the nephrotoxicity entry in [3] is given as “very nephrotoxic; also recorded: unacceptably nephrotoxic”.
Take `COCCOCCOCCOc1ccc(C2=N[C@@](C)(C(=O)O)CS2)c(O)c1` [ligand 4, (S)-4,5-dihydro-2-[2-hydroxy-4-(3,6,9-trioxadecyloxy)phenyl]-4-methyl-4-thiazolecarboxylic acid, reference compound]: the “ICE (iron-clearing efficiency), rodents” value in series [2] (setting [12]) is reported as 5.5±1.9%. Moreover, the nephrotoxicity result in [3] is reported as “virtually absent of any nephrotoxicity”. For the same compound, in [6], the “time of maximum iron clearance (MIC)” value came out at 3 h; the “time until iron excretion is over / returned to baseline, biliary ferrokinetics” value is reported as 12 h; the “ICE relative to parent ligand 2 (times)” value was “five times greater”. The “ICE relative to longer analogue 5 (times)” value in series [7] (primates) is 2.5.
In the case of `COCCOCCOCCOCCOc1ccc(C2=N[C@@](C)(C(=O)O)CS2)c(O)c1` [ligand 5, (S)-4,5-dihydro-2-[2-hydroxy-4-(3,6,9,12-tetraoxamidecyloxy)phenyl]-4-methyl-4-thiazolecarboxylic acid], in series [6], the “time of maximum iron clearance (MIC)” value amounted to 6 h; the “time until iron excretion is over / returned to baseline, biliary ferrokinetics” value was determined as 24 h; the “ICE relative to parent ligand 2 (times)” value was roughly 11; the “ICE relative to trioxa polyether 4 (times)” value is on record as “twice as effective”. Also, the “ICE (iron-clearing efficiency), rodents” value in [6] (po 300 μmol/kg by gavage as monosodium salt) is reported as 12.0±1.5%. In series [7], the “performance ratio (PR), mean ICEprimates/ICErodents” value is on record as 0.82. In addition, the “ICE (iron-clearing efficiency), primates” value in series [7] (setting [13]) is recorded as 9.8±1.9%.
With `COCCOCCOc1ccc(C2=N[C@@](C)(C(=O)O)CS2)c(O)c1` [ligand 6, (S)-4,5-dihydro-2-[2-hydroxy-4-(3,6-dioxaheptyloxy)phenyl]-4-methyl-4-thiazolecarboxylic acid], in the series with rats (setting [14]), the “decrease of cardiac iron vs untreated controls” value (“decrease of cardiac iron” below) was 9.9%, the “reduction of liver iron vs untreated controls” value (“reduction of liver iron” for short) is reported as greater than 35%, the “reduction of pancreatic iron vs untreated controls” value (“reduction of pancreatic iron” for short) is listed as “significant reduction in pancreatic iron” and the “reduction of renal iron content vs untreated controls” value (from here on “reduction of renal iron content”) is recorded as 24.8%. In the series with rats (setting [15]), the “decrease of cardiac iron” value is on record as 6.9%, the “reduction of liver iron” value is given as greater than 35%, the “reduction of pancreatic iron” value is given as “but not when it was dosed in capsules” and the “reduction of renal iron content” value is 7.4%. Besides, the “ICE (iron-clearing efficiency), rodents” value in series [6] (po 300 μmol/kg in capsules) is on record as greater than 26%. Moreover, the “ICE (iron-clearing efficiency), rodents” value in series [6] (po 300 μmol/kg in capsules, listed as 6) was determined as 26.7±4.7%. The “ICE relative to trioxa polyether 4 (times)” value in series [6] is reported as “nearly five times greater”. Moreover, the “performance ratio (PR), mean ICEprimates/ICErodents” value in [7] is reported as 1.0. Also, the “ICE (iron-clearing efficiency), primates” value in series [7] (setting [13]) came to 28.7±12.4%. Moreover, the “ICE (iron-clearing efficiency), primates” value in [7] (po 75 μmol/kg in capsules) was 26.3±9.9% and > 26%.
On to `CCOC(=O)[C@@]1(C)CSC(c2ccc(OCCOCCOC)cc2O)=N1` [ligand 7, ethyl (S)-4,5-dihydro-2-[2-hydroxy-4-(3,6-dioxaheptyloxy)phenyl]-4-methyl-4-thiazolecarboxylate], for which, in the series with rats (setting [16]), the “decrease of cardiac iron” value is on record as “Neither dose was associated with a reduction”, the “reduction of liver iron” value is given as 27%, the “reduction of pancreatic iron” value is “Neither dose was associated with a reduction” and the “reduction of renal iron content” value is listed as 12.6%. For the same compound, in the series with rats (setting [15]), the “decrease of cardiac iron” value is given as “Neither dose was associated with a reduction”, the “reduction of liver iron” value worked out at 59.1%, the “reduction of pancreatic iron” value is reported as “Neither dose was associated with a reduction” and the “reduction of renal iron content” value came out at 32.1%. Further, in series [8] (7 vs 1), the “fold difference in partition” value is reported as “greater than 58.000 fold”. The “times more lipophilic than the parent 2” value in series [8] (7 vs 2) is on record as 11,220. In [9], the “time for conversion of all of the ester to the active acid 6” value was 1 to 2 h. In addition, in [10], the “stability of the ester in saline” value is listed as “all of the drug remained in the form of the ester”. In addition, the “ICE (iron-clearing efficiency), rodents” value in [6] (po 300 μmol/kg in capsules) was found to be 25.9±6.5%. Further, the “ICE relative to parent ligand 2 (times)” value in [6] was “approximately 24”. Besides, the “time for conversion of all of the ester to the active acid 6” value in [11] was 1 to 2 h. In series [7], the “performance ratio (PR), mean ICEprimates/ICErodents” value stood at 0.33. The “ICE (iron-clearing efficiency), primates” value in series [7] (po 75 μmol/kg in capsules) came out at 8.8±2.2%. The “ICE relative to acid 6” value in series [7] (primates) is “only one third”.
